In ChEMBL document CHEMBL1159029, “An Epoxydon-Derived Ester from a Phoma sp. Pathogenic to Rhubarb” (1992):

How the values were obtained:
[1] = tested on: Colletotrichum acutatum; experiment: Antimicrobial activity against Colletotrichum acutatum NC 1618 at 1 mg/disk by disk assay; assay type: functional
[2] = tested on: Penicillium chrysogenum; experiment: Antimicrobial activity against Penicillium notatum AT-9479 at 0.5 mg/disk by disk assay; assay type: functional
[3] = tested on: Senna obtusifolia; experiment: Phytotoxicity against Senna obtusifolia assessed as brownish-black necrotic lesion area at 50 ug within 48 hrs by detached leaf assay; assay type: functional
[4] = tested on: Sorghum bicolor; experiment: Phytotoxicity against Sorghum bicolor assessed as brownish-black necrotic lesion area at 50 ug within 48 hrs by detached leaf assay; assay type: functional
[5] = tested on: Curtobacterium flaccumfaciens; experiment: Antimicrobial activity against Corynebacterium flaccumfaciens CF-20 at 0.5 mg/disk by disk assay; assay type: functional
[6] = tested on: Chenopodium album; experiment: Phytotoxicity against Chenopodium album assessed as brownish-black necrotic lesion area at 50 ug within 48 hrs by detached leaf assay; assay type: functional
[7] = tested on: Rheum rhabarbarum; experiment: Phytotoxicity against Rhubarb assessed as brownish-black necrotic lesion area at 50 ug up to 48 hrs by detached leaf assay; assay type: functional
[8] = tested on: Penicillium chrysogenum; experiment: Antimicrobial activity against Penicillium notatum AT-9479 at 1 mg/disk by disk assay; assay type: functional
[9] = tested on: Escherichia coli; experiment: Antimicrobial activity against Escherichia coli DH 5alpha at 1 mg/disk by disk assay; assay type: functional
[10] = tested on: Agrobacterium tumefaciens; experiment: Antimicrobial activity against Agrobacterium tumefaciens C-58 at 1 mg/disk by disk assay; assay type: functional
[11] = tested on: Aspergillus flavus; experiment: Antimicrobial activity against Aspergillus flavus AF3357 at 0.5 mg/disk by disk assay; assay type: functional, AF-3357
[12] = tested on: Pectobacterium carotovorum; experiment: Antimicrobial activity against Erwinia carotovora EC-14 at 0.5 mg/disk by disk assay; assay type: functional
[13] = tested on: Curtobacterium flaccumfaciens; experiment: Antimicrobial activity against Corynebacterium flaccumfaciens CF-20 at 1 mg/disk by disk assay; assay type: functional
[14] = tested on: Nasturtium officinale; experiment: Phytotoxicity against Nasturtium officinale assessed as brownish-black necrotic lesions area at 50 ug within 48 hrs by detached leaf assay; assay type: functional
[15] = tested on: Escherichia coli; experiment: Antimicrobial activity against Escherichia coli DH 5alpha at 0.5 mg/disk by disk assay; assay type: functional
[16] = tested on: Agrobacterium tumefaciens; experiment: Antimicrobial activity against Agrobacterium tumefaciens C-58 at 0.5 mg/disk by disk assay; assay type: functional
[17] = tested on: Ipomoea; experiment: Phytotoxicity against Ipomoea sp. assessed as brownish-black necrotic lesion area at 50 ug within 48 hrs by detached leaf assay; assay type: functional
[18] = tested on: Colletotrichum acutatum; experiment: Antimicrobial activity against Colletotrichum acutatum NC 1618 at 0.5 mg/disk by disk assay; assay type: functional
[19] = tested on: Aspergillus flavus; experiment: Antimicrobial activity against Aspergillus flavus AF3357 at 1 mg/disk by disk assay; assay type: functional, AF-3357
[20] = tested on: Sida spinosa; experiment: Phytotoxicity against Sida spinosa assessed as brownish-black necrotic lesion area at 50 ug within 48 hrs by detached leaf assay; assay type: functional
[21] = tested on: Phoma; experiment: Antimicrobial activity against Phoma sp. at 0.5 mg/disk by disk assay; assay type: functional
[22] = tested on: Pectobacterium carotovorum; experiment: Antimicrobial activity against Erwinia carotovora EC-14 at 1 mg/disk by disk assay; assay type: functional
[23] = tested on: Sorghum halepense; experiment: Phytotoxicity against Sorghum halepense assessed as brownish-black necrotic lesion area at 50 ug within 48 hrs by detached leaf assay; assay type: functional
[24] = tested on: Datura stramonium; experiment: Phytotoxicity against Datura stramonium assessed as brownish-black necrotic lesion area at 50 ug within 48 hrs by detached leaf assay; assay type: functional
[25] = tested on: Pectobacterium carotovorum; experiment: Antimicrobial activity against Erwinia carotovora EC-14 at 0.25 mg/disk by disk assay; assay type: functional
[26] = tested on: Agrobacterium tumefaciens; experiment: Antimicrobial activity against Agrobacterium tumefaciens C-58 at 0.25 mg/disk by disk assay; assay type: functional
[27] = tested on: Colletotrichum acutatum; experiment: Antimicrobial activity against Colletotrichum acutatum NC 1618 at 0.25 mg/disk by disk assay; assay type: functional
[28] = tested on: Aspergillus flavus; experiment: Antimicrobial activity against Aspergillus flavus AF3357 at 0.25 mg/disk by disk assay; assay type: functional, AF-3357
[29] = tested on: Escherichia coli; experiment: Antimicrobial activity against Escherichia coli DH 5alpha at 0.25 mg/disk by disk assay; assay type: functional
[30] = tested on: Penicillium chrysogenum; experiment: Antimicrobial activity against Penicillium notatum AT-9479 at 0.25 mg/disk by disk assay; assay type: functional
[31] = tested on: Curtobacterium flaccumfaciens; experiment: Antimicrobial activity against Corynebacterium flaccumfaciens CF-20 at 0.25 mg/disk by disk assay; assay type: functional

Row | Structure (SMILES) | Diameter of inhibition zone [2] | Activity [3] | Activity [4] | Diameter of inhibition zone [5] | Activity [6] | Activity [7] | Diameter of inhibition zone [11] | Diameter of inhibition zone [12] | Activity [14] | Diameter of inhibition zone [15] | Diameter of inhibition zone [16] | Activity [17] | Diameter of inhibition zone [18] | Activity [20] | Diameter of inhibition zone [21] | Activity [23] | Activity [24] | Diameter of inhibition zone [25] | Diameter of inhibition zone [26] | Diameter of inhibition zone [27] | further results
1 | Cc1cccc(O)c1C(=O)O | 12 mm | 11 mm2 | 37 mm2 | 16 mm | 27 mm2 | 55 mm2 | 10 mm | 0 mm | 17 mm2 | 0 mm | 18 mm | 15 mm2 | 8 mm | 23 mm2 | 16 mm | 15 mm2 | 48 mm2 |  |  |  | Diameter of inhibition zone [1]: 22 mm; Diameter of inhibition zone [8]: 18 mm; Diameter of inhibition zone [9]: 0 mm; Diameter of inhibition zone [10]: 25 mm; Diameter of inhibition zone [13]: 21 mm; Diameter of inhibition zone [19]: 17 mm; Diameter of inhibition zone [22]: 0 mm
2 | O=C1C(CO)=C[C@@H](O)[C@H]2O[C@@H]12 [EPOXYDON] | 10 mm | 17 mm2 | 31 mm2 | 20 mm | 62 mm2 | 27 mm2 | 8 mm | 17 mm | 41 mm2 | 25.3 mm | 12 mm | 51 mm2 | 12 mm | 25 mm2 |  | 37 mm2 | 31 mm2 | 9 mm | 10 mm | 10 mm | Diameter of inhibition zone [28]: 0 mm; Diameter of inhibition zone [29]: 18 mm; Diameter of inhibition zone [30]: 0 mm; Diameter of inhibition zone [31]: 12 mm
3 | Cc1cccc(O)c1C(=O)O[C@@H]1C(=O)C(CO)=C[C@@H](O)[C@H]1O |  | 33 mm2 | 41 mm2 |  | 13 mm2 | 18 mm2 |  |  | 44 mm2 |  |  | 21 mm2 |  | 24 mm2 |  | 7 mm2 | 9 mm2 |  |  |  | 
4 | CC1=C[C@@H](O)[C@H]2O[C@H]2C1=O [DESOXYEPOXYDON] | 27 mm | 51 mm2 | 69 mm2 | 49 mm | 57 mm2 | 42 mm2 | 22 mm | 45 mm | 34 mm2 | 44 mm | 56 mm | 64 mm2 | 60 mm | 74 mm2 | 30 mm | 30 mm2 | 73 mm2 | 31 mm | 43 mm | 40 mm | Diameter of inhibition zone [28]: 15 mm; Diameter of inhibition zone [29]: 35 mm; Diameter of inhibition zone [30]: 15 mm; Diameter of inhibition zone [31]: 38 mm
